Measurements from patent US20040147739A1, “Novel anti-infectives” (priority 2003, published 2004).

What was measured:
[1] = target: T1, HCV NS5B (Hepatitis C virus genotype 1b, UniProt P26663); assay: biochemical
T1 construct: The NS5B protein (591 amino acids, 65 kDa) of HCV
Experimental: The activity of the inventive compounds as inhibitors of HCV activity may be measured by any of the suitable methods known to those skilled in the art, including in vivo and in vitro assays. For example, the HCV NS5B inhibitory activity of the compounds of Formulas I, II and III was determined using standard assay procedures described in Behrens et al., EMBO J. 15:12-22 (1996), Lohmann et al., Virology 249:108-118 (1998) and Ranjith-Kumar et al., J. Virology 75:8615-8623 (2001).
The HCV NS5B inhibitory activity of the compounds of Formulas I, II m and IV was determined using standard procedures well known to those skilled in the art and described in, for example Behrens et al., EMBO J. 15:12-22 (1996), Lohmann et al., Virology 249:108-118 (1998) and Ranjith-Kumar et al., J. Virology 75:8615-8623 (2001).

T1 sequence (P26663 2420-3010): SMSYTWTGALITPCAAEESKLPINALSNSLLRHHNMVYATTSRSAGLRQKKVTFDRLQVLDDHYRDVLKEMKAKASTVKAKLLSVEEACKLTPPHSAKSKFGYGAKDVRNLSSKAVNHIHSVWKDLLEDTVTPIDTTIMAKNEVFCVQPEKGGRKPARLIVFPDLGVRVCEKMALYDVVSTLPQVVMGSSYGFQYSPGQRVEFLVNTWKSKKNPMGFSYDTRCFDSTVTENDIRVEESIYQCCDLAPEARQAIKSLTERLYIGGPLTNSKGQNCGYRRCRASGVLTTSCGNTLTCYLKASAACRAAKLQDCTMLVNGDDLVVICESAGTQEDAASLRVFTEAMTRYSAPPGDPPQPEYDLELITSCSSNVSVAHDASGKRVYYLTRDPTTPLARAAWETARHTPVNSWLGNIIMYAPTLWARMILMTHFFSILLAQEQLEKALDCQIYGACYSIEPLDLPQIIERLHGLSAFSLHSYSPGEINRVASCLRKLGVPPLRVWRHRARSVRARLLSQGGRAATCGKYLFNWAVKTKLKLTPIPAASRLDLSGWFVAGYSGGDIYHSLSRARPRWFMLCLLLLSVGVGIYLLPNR

Row | Compound | IC50 [1] [µM] | biological activity at the screening rate of 10 uM [1] | further results
1 | O=c1c(C2=NS(=O)(=O)c3cc(I)ccc3N2)c(O)c2ccccc2n1CCC1CC1 | – | – | melting point: 234 to 236 °C
2 | O=c1c(C2=NS(=O)(=O)c3ccccc3N2)c(O)c2ccccc2n1CCc1ccccc1 [Example 1] | > 10 | – | –
3 | N#Cc1ccccc1Cn1c(=O)c(C2=Nc3ccccc3S(=O)(=O)N2)c(O)c2ccccc21 [Example 2, 3-(1,1-Dioxo-1,2-dihydrobenzo[1,2,4]thiadiazin-3-yl)-4-hydroxy-1-(2-cyanobenzyl)-1H-quinolin-2-one] | > 10 | – | –
4 | O=c1c(C2=NS(=O)(=O)c3ccccc3N2)c(O)c2ccccc2n1CCCc1ccccc1 [Example 3] | > 10 | – | –
5 | COc1ccc(C(=O)Nc2ccc3c(c2)c(O)c(C2=NS(=O)(=O)c4ccccc4N2)c(=O)n3CCC(C)C)cc1 [Example 37, N-[3-(1,1-Dioxo-1,4-dihydrobenzo[1,2,4]thiadiazin-3-yl)-4-hydroxy-1-(3-methylbutyl)-2-oxo-1,2dihydroquinolin-6-yl]4-methoxybenzamide] | > 10 | – | –
6 | CCOC(=O)c1ccc2c(c1)c(O)c(C1=NS(=O)(=O)c3ccccc3N1)c(=O)n2CCC(C)C [Example 95, 3-(1, i-Dioxo-1,4-dihydrobenzo[1,2,4]thiadiazin-3-yl)-4-hydroxy-1-(3-methylbutyl)-2-oxo-1,2-dihydroquinoline-6-carboxylic acid ethyl ester] | > 10 | – | –
7 | COc1ccc(CCNC(=O)c2ccc3c(c2)S(=O)(=O)N=C(c2c(O)c4ccccc4n(CCC4CC4)c2=O)N3)cc1 [Example 102, 3-[1-(2-Cyclopropylethyl)-4-hydroxy-2-oxo-1,2-dihydroquinolin-3-yl]-1,1-dioxo-1,4 dihydroenzo[1,2,4]thiadiazine-7-carboxylic acid [2-(4-methoxyphenyl)ethyl]amide] | > 10 | – | –
8 | CC(C)CCn1c(=O)c(C2=Nc3ccccc3S(=O)(=O)N2)c(O)c2ccc([N+](=O)[O-])cc21 [Example 198, 3-(1,1-Dioxo-1,2-dihydrobenzo[1,2,4]thiadiazin-3-yl)-4-hydroxy-1-(3-methylbutyl)-7-nitro-1H-quinolin-2-one] | – | did not demonstrate biological activity | –
9 | CC(C)CCn1c(=O)c(C2=Nc3ccccc3S(=O)(=O)N2)c(O)c2ccc(Cl)cc21 [Example 199, 7-Chloro-3-(1,1-dioxo-1,2-dihydrobenzo[1,2,4]thiadiazin-3-yl)-4-hydroxy-1-(3-methylbutyl)-H-quinolin-2-one] | – | did not demonstrate biological activity | –
10 | NCCCCn1c(=O)c(C2=Nc3ccccc3S(=O)(=O)N2)c(O)c2ccccc21 [Example 200, 1-(4-Aminobutyl)-3-(1,1-dioxo-1,2-dihydrobenzo[1,2,4]thiadiazin-3-yl)-4-hydroxy-1-1H-quinolin-2-one] | – | did not demonstrate biological activity | –
11 | O=c1c(C2=Nc3ccccc3S(=O)(=O)N2)c(O)c2ccccc2n1-c1ccccc1 [Example 201, 3-(1,1-Dioxo-1,2-dihydrobenzo[1,2,4]thiadiazin-3-yl)-4-hydroxy-1-phenyl-1H-quinolin-2-one] | – | did not demonstrate biological activity | –
12 | CC(C)CCn1c(=O)c(C2=NS(=O)(=O)c3c(Br)cccc3N2)c(O)c2ccccc21 [Example 203, 3-(8-Bromo-1,1-dioxo-1,4-dihydro-1-benzo[1,2,4]thiadiazin-3-yl)-4-hydroxy-1-(3-methylbutyl)-1H-quinolin-2-one] | – | did not demonstrate biological activity | –
13 | CC(C)CCn1c(=O)c(C2=NS(=O)(=O)c3ccccc3N2)c(O)c2ccc(/C=C/C(N)=O)cc21 [Example 204, (E)-3-[3-(1,1-Dioxo-1,4-dihydro-1-benzo[1,2,4]thiadiazin-3-yl)-4-hydroxy-1-(3-methylbutyl)-2-oxo-1,2-dihydro-quinolin-7-yl]acrylamide] | – | did not demonstrate biological activity | –
14 | CC(C)CCOc1ccc2c(c1)c(O)c(C1=NS(=O)(=O)c3ccccc3N1)c(=O)n2CC(=O)OC(C)(C)C [Example 205, [3-(1,1-Dioxo-1,4-dihydro-1-benzo[1,2,4]thiadiazin-3-yl)-4-hydroxy-6-(3-methyl-butoxy)-2-oxo-2H-quinolin-1-yl]acetic acid tert-butyl ester] | – | did not demonstrate biological activity | –
15 | CC(C)CCn1c(=O)c(C2=NS(=O)(=O)c3ccccc3N2)c(O)c2cc(C(=O)N(C)C)ccc21 [Example 206, 3-(1,1-Dioxo-1,4-dihydro-1-benzo[1,2,4]thiadiazin-3-yl)-4-hydroxy-1-(3-methylbutyl)-2-oxo-1,2-dihydro-quinoline-6-carboxylic acid dimethylamide] | – | did not demonstrate biological activity | –
16 | O=c1c(C2=NS(=O)(=O)c3ccccc3N2)c(O)c2ccccc2n1CCN1CCCC1 [Example 207, 3-(1,1-Dioxo-1,4-dihydro-1-benzo[1,2,4]thiadiazin-3-yl)-4-hydroxy-1-(2-pyrrolidin-1-yl-ethyl)-1H-quinolin-2-one] | – | did not demonstrate biological activity | –
17 | CC(C)(C)c1ccc(Cn2c(=O)c(C3=NS(=O)(=O)c4ccccc4N3)c(O)c3ccccc32)cc1 [Example 208, 1-(4-tert-Butylbenzyl)-3-(1,1-dioxo-1,4-dihydro-1-benzo[1,2,4]thiadiazin-3-yl)-4-hydroxy-1H-quinolin-2-one] | – | did not demonstrate biological activity | –

Further lines, with some results ahead:

Row | IC50 [1] [µM] | Compound | biological activity at the screening rate of 10 uM [1] | further results
18 | > 10 | NC(=O)CCCn1c(=O)c(C2=Nc3ccccc3S(=O)(=O)N2)c(O)c2ccccc21 [Example 170, 4-[3-(1,1-Dioxo-1,2-dihydrobenzo[1,2,4]thiadiazin-3-yl)-4-hydroxy-2-oxoquinolin-1-yl]butyramide] | – | –
19 | > 10 | CC(C)CCn1c(=O)c(C2=Nc3ccccc3S(=O)(=O)N2)c(O)c2ccc(C(=O)O)cc21 [Example 171, 3-(1,1-Dioxo-1,2-dihydrobenzo[1,2,4]thiadiazin-3-yl)-4-hydroxy-1-(3-methylbutyl)-2-oxo-1,2-dihydro-quinoline-7-carboxylic acid] | – | –
20 | > 10 | CC(C)CCn1c(=O)c(C2=Nc3ccccc3S(=O)(=O)N2)c(O)c2ccc(Br)cc21 [Example 173, 7-bromo-3-(1,1-dioxo-1,2-dihydrobenzo[1,2,4]thiadiazin-3-yl)-4-hydroxy-1-(3-methylbutyl)-1H-quinolin-2-one] | – | –
21 | > 10 | CC(C)CCn1c(=O)c(C2=NS(=O)(=O)c3cc(I)ccc3N2)c(O)c2ccccc21 [Example 181, 4-Hydroxy-3-(7-iodo-1,1-dioxo-1,4-dihydro-1-benzo[1,2,4]thiadiazin-3-yl)-1-(3-methylbutyl)-1H-quinolin-2-one] | – | –
22 | > 10 | CCOC(=O)CCCn1c(=O)c(C2=NS(=O)(=O)c3ccccc3N2)c(O)c2ccccc21 [Example 182, 4-[3-(1,1-Dioxo-1,4-dihydro-1-benzo[1,2,4]thiadiazin-3-yl)-4-hydroxy-2-oxo-2H-quinolin-1-yl]-butyric acid ethyl ester] | – | –
23 | > 10 | O=C(O)CCCn1c(=O)c(C2=Nc3ccccc3S(=O)(=O)N2)c(O)c2ccccc21 [Example 183, 4-[3-(1,1-Dioxo-1,4-dihydro-1-benzo[1,2,4]thiadiazin-3-yl)-4-hydroxy-2-oxo-2H-quinolin-1-yl]-butyric acid] | – | –
24 | > 10 | CC(C)CCn1c(=O)c(C2=NS(=O)(=O)c3ccccc3N2)c(O)c2cc(I)ccc21 [Example 185, 3-(1,1-Dioxo-1,4-dihydro-1-benzo[1,2,4]thiadiazin-3-yl)-4-hydroxy-6-iodo-1-(3-methylbutyl)-1H-quinolin-2-one] | – | –
25 | > 10 | CC(C)CCc1cccc2c(O)c(C3=NS(=O)(=O)c4ccccc4N3)c(=O)[nH]c12 [Example 186, 3-(1,1-Dioxo-1,4-dihydro-1-benzo[1,2,4]thiadiazin-3-yl)-4-hydroxy-8-(3-methylbutyl)-1H-quinolin-2-one] | – | –
26 | > 10 | CC(C)CCn1c(=O)c(C2=NS(=O)(=O)c3ccccc3N2)c(O)c2c(C(=O)O)cccc21 [Example 188, 3-(1,1-Dioxo-1,4-dihydro-1-benzo[1,2,4]thiadiazin-3-yl)-4-hydroxy-1-(3-methylbutyl)-2-oxo-1,2-dihydro-quinoline-5-carboxylic acid] | – | –
27 | > 10 | CN(C)CCn1c(=O)c(C2=Nc3ccccc3S(=O)(=O)N2)c(O)c2ccccc21 [Example 190, 1-(2-Dimethylamino-ethyl)-3-(1,1-dioxo-1,4-dihydro-1-benzo[1,2,4]thiadiazin-3-yl)-4-hydroxy-1H-quinolin-2-one] | – | –
28 | > 10 | O=c1c(C2=NS(=O)(=O)c3ccccc3N2)c(O)c2ccccc2n1CCO [Example 193, 3-(1,1-Dioxo-1,4-dihydro-1-benzo[1,2,4]thiadiazin-3-yl)-4-hydroxy-1-(2-hydroxyethyl)-1H-quinolin-2-one] | – | –
29 | > 10 | Cc1ccc(F)cc1Cn1c(=O)c(C2=NS(=O)(=O)c3ccccc3N2)c(O)c2ccccc21 [Example 195, 3-(1,1-Dioxo-1,4-dihydro-1-benzo[1,2,4]thiadiazin-3-yl)-1-(5-fluoro-2-methyl-benzyl)4-hydroxy-1H-quinolin-2-one] | – | –
30 | > 10 | O=c1c(C2=Nc3ccccc3S(=O)(=O)N2)c(O)c2ccccc2n1Cc1ccccc1[N+](=O)[O-] [Example 196, 3-(1,1-Dioxo-1,4-dihydro-1-benzo[1,2,4]thiadiazin-3-yl)-4-hydroxy-1-(2-nitro-benzyl)-1H-quinolin-2-one] | – | –
